Experimental data published in the NIST ThermoML archive (doi:10.1021/acs.jced.5b00152).

Details: Liquid; for viscosity: Capillary tube (Ostwald / Ubbelohde) method; for mass density: Vibrating tube method

CCCCCC [hexane]
Details	mass density [kg/m3]	viscosity [mPa·s]
293.22 K, 1999 kPa	661.4	0.3196
293.22 K, 3994 kPa	663.53	0.3287
293.22 K, 5999 kPa	665.43	0.339
293.22 K, 8007 kPa	667.57	0.3483
293.22 K, 22004 kPa	680.38	0.4135
293.22 K, 28004 kPa	685.01	0.4427
293.23 K, 10003 kPa	669.41	0.3576
293.23 K, 13000 kPa	672.26	0.3713
293.23 K, 16006 kPa	675.2	0.3851
293.23 K, 19000 kPa	677.83	0.399
293.23 K, 25002 kPa	682.87	0.428
293.23 K, 30001 kPa	686.72	0.4521
313.1 K, 2005 kPa	643.6	0.2614
313.1 K, 3997 kPa	645.97	0.2702
313.1 K, 5999 kPa	648.24	0.2774
313.1 K, 8000 kPa	650.44	0.2853
313.1 K, 9999 kPa	652.57	0.2934
313.1 K, 12997 kPa	655.73	0.305
313.1 K, 15999 kPa	659	0.3165
313.1 K, 18003 kPa	661.04	0.3243
313.1 K, 21999 kPa	664.77	0.3399
313.1 K, 24998 kPa	667.58	0.3504
313.1 K, 28001 kPa	670.32	0.3631
313.1 K, 30004 kPa	672.03	0.37
333 K, 2004 kPa	624.85	0.2192
333 K, 4002 kPa	627.59	0.226
333 K, 6003 kPa	630.29	0.2328
333 K, 8005 kPa	632.82	0.2396
333 K, 10008 kPa	635.78	0.2467
333 K, 12998 kPa	639.36	0.2565
333 K, 16002 kPa	642.74	0.2667
333 K, 19000 kPa	646.04	0.2766
333 K, 21993 kPa	649.32	0.2863
333 K, 25001 kPa	652.41	0.296
333 K, 28000 kPa	655.31	0.3058
333 K, 30005 kPa	657.29	0.3128
353.14 K, 4001 kPa	608.43	0.1911
353.14 K, 8003 kPa	614.97	0.203
353.14 K, 15997 kPa	625.92	0.2264
353.14 K, 21998 kPa	633.46	0.2438
353.15 K, 2003 kPa	605.15	0.1848
353.15 K, 5997 kPa	611.57	0.197
353.15 K, 10009 kPa	618	0.2091
353.15 K, 13000 kPa	622.08	0.2179
353.15 K, 19000 kPa	629.87	0.2352
